Test results as given in US12295997B2, “Prostate neoantigens and their uses” (Janssen Biotech, Inc., priority 2020, dated 2025).

Assays:
[1] = system: CD8+ and CD4+ T cells (autologous CD3+ Pan-T cells isolated from human normal PBMCs); assay: Exogenous autologous normal donor restimulation assay (15-mer overlapping peptide pools on CD1c+ dendritic cells, TNFα/IFNγ flow cytometry); type: cell-based; conditions: Table 25, 15-mer overlapping peptide pool; for Maximum Fold Change Over Background CD4+ cells: TNFα+IFNγ+ CD4+ T cells; for Maximum Fold Change Over Background CD4+ cells / Maximum Fold Change Over Background CD8+ cells: highest fold change over negative control across normal donors; for Maximum Fold Change Over Background CD8+ cells: TNFα+IFNγ+ CD8+ T cells; for Maximum Frequency of TNFα/IFNγ Double Positive CD4+ T cells / Maximum Frequency of TNFα/IFNγ Double Positive CD8+ T cells: highest frequency across normal donors
Summary of the method: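 Readout was intracellular TNFα/IFNγ flow cytometry on live CD3+ CD8+ and CD4+ cells after day-11 peptide restimulation. Stimulators were CD1c+ dendritic cells loaded with overlapping 15-mer peptide pools (2.5–10 μg/mL), irradiated, and cultured 12 days with autologous normal-donor Pan-T cells plus IL-15/IL-2. A response counted when ≥3-fold over DMSO control and at least 0.01%.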

[2] = system: CD8+ and CD4+ T cells (autologous CD3+ Pan-T cells isolated from human normal PBMCs); assay: Endogenous autologous normal donor restimulation assay (Ad5-transduced CD1c+ dendritic cells, TNFα/IFNγ flow cytometry); type: cell-based; conditions: Table 27, endogenous expression, peptide pool restimulation, highest across sixteen normal donors
Experimental: CD1c+ Dendritic Cells (DC) isolated from human normal PBMCs were thawed using media (IMDM (Gibco) supplemented with glutamine, HEPES, 5% human serum (Sigma), and 1×Pen-Strep). DC cells were resuspended in media supplemented with IL-4 (Peprotech, 80 ng/mL) and GM-CSF (Gibco, 80 ng/mL), plated in 6 well microplates, and rested overnight at 37° C. (5% CO2). The following day, DC cells were counted and plated in a 96 well round bottom microplate at a concentration of 30,000 viable cells per well. Ad5 vectors (Vector Biolabs) were dilute in media to an MOI (Multiplicity Of Infection) of 5000 based on Plaque Forming Units. Ad5 vectors for the CEF pool and a “null” were used as controls. DCs were transduced with Ad5 vectors overnight at 37° C. (5% CO2). The following day, the Ad5 vectors were washed off the plate by three sequential centrifugation/aspiration steps using sterile Phosphate Buffered Saline. After the final wash, transduced DCs were resuspended in 100 μL media. Autologous CD3+ Pan-T cells isolated from human normal PBMCs were thawed using media. Pan-T cells were added to the irradiated DCs at 300,000 viable cells per well (100 μL/well). Human IL-15 (Peprotech) was added to all wells at final concentration of 10 ng/mL.
Plates were incubated at 37° C. (5% CO2) for a total of 12 days. Media was refreshed every 2-3 days with IL-15 (10 ng/mL final concentration) and IL-2 (R&D systems, 10 IU/mL final concentration). On day 11 lyophilized peptides (15-mer overlapping peptides) were solubilized in 100% DMSO and pooled by neoantigen to between 5 mg/mL and 20 mg/mL. Neoantigen peptides pools were added to cells for a final concentration of 2.5 μg/mL to 10 μg/mL. CEF Peptide Pool “Plus” (Cellular Technologies, Ltd.) was utilized as a positive control and DMSO at the same final concentration as the experimental peptides was utilized as a negative control. Protein Inhibitor Cocktail (eBioscience) was added to every well and plate was incubated overnight at 37° C. (5% CO2).
On day 12, cells were stained for intracellular flow cytometry analysis. The cells were washed with PBS and stained with Live/Dead Fixable Aqua Dead Cell stain (Thermo-Fisher). Following the live/dead stain, cells were blocked using Biotin-Free Fc Receptor Blocker (Accurate Chemical & Scientific Corp). Extracellular cellular flow panel ([…] per well in 50 μL) consisted of CD3 PerCP-Cy5.5 (Biolegend), CD4 BV421 (Biolegend), and CD8 APC-Cy7 (Biolegend). After extracellular staining, cells were fixed using Foxp3/fTranscription Factor Staining Buffer Set (eBioscience) and stained for intracellular proteins (1:50 dilution) using TNFα FITC (R&D Systems) and IFNγ BV785 (Biolegend). Cells were washed and resuspended in stain buffer and analyzed using a BD Celesta flow cytometer.
Flow cytometry cell staining analysis was completed using FlowJo v10. Cells were gated on live, singlet, CD3+ cells. The CD8+ and CD4+ T cells were analyzed for TNFα/IFNγ expression and the frequency of double positive TNFα/IFNγ CD8+ and the frequency of double positive TNFα/IFNγ CD4+ T cells were recorded. Responses were assessed to be positive when the frequency of double positive TNFα/IFNγ CD8+ or TNFα/IFNγ CD4+ T cells due to stimulation with an experimental peptide pool was increased greater than or equal to 3-fold over the DMSO only negative control for that donor and at least 0.01%.
For three of the neoantigens, an Ad5 vector was designed to transduce normal Dendritic cells with the neoantigens. This assay assessed the ability of the endogenously expressed and presented neoantigens to activate autologous T cells following overlapping 15-mer peptide pools restimulation using the endogenous autologous normal donor restimulation assay described in Example 1 utilizing TNFα and IFNγ production by CD8^+ and CD4^+ T cells as a readout. […] Sixteen donors were used to assess endogenous immunogenicity.

Row | Sequence | Maximum Fold Change Over Background CD4+ cells [1] | Maximum Fold Change Over Background CD8+ cells [1] | Maximum Frequency of TNFα/IFNγ Double Positive CD4+ T cells [1] | Maximum Frequency of TNFα/IFNγ Double Positive CD8+ T cells [1] | Maximum Fold Change Over Background CD4+ cells [2] | Maximum Fold Change Over Background CD8+ cells [2] | Maximum Frequency of TNFα/IFNγ Double Positive CD4+ T cells [2] | Maximum Frequency of TNFα/IFNγ Double Positive CD8+ T cells [2]
1 | WKFEMSYTVGGPPPHVHARPRHWKTDR (listed as Homo sapiens) [AS18, NWD1 alternative splicing] | 7.51 | 9.17 | 0.053 | 0.110 | 1.90 | 4.09 | 0.046 | 0.36
2 | DGHSYTSKVNCLLLQDGFHGCVSITGAAGRRNLSIFLFLMLCKLEFHAC (listed as Homo sapiens) [AS55, SPOCK1 alternative splicing] | 19.38 | 1354.17 | 0.310 | 32.500 | 3.50 | 213.88 | 0.063 | 2.05
